Measurements published in patent US12433881B2, “Nicotine tablet” (Fertin Pharma A/S, priority 2017, dated 2025).

Conditions: nicotine concentration increased from 100 microgram/mL to 14,000 microgram/mL

## CN1CCCC1c1cccnc1 (stereo not shown) [nicotine]
  change of permeability of nicotine across the buccal mucosa: decrease of about a factor of two
